Activity calls are given as the source filed them. The rule behind the calls is not given here.
Biological target: 3C-like protease (3CLpro), SARS coronavirus (filed as Infectious bronchitis virus)
Assay: PubChem AID 602486
Details: recombinant 3CLpro, fluorogenic peptide cleavage

CC(=O)Nc1ccc(N(C(=O)Cn2cc(-c3ccccc3)nn2)C(C(=O)NC(C)(C)C)c2ccsc2)cc1 (stereo unspecified)
IC50: inactive

— PubChem BioAssay AID602486 (The Scripps Research Institute Molecular Screening Center, 2012)
